System: Tetranychus urticae
Assay: Test for confirming effect on Tetranychus urticae (kidney bean leaves in petri dish, sprinkling; survival numbers of next generation)
Format: in vivo
Protocol: Test for Confirming Effect on Tetranychus urticae
Ten Tetranychus urticae female imagoes were inoculated on kidney bean leaves placed in each petri dish on the day before chemical solution treatment.
A flowable agent containing the compound A was diluted with water containing RABIDEN 3S diluted 5000 times to prepare chemical solutions A containing the compound A at twice concentrations described in Table 3, respectively.
A preparation containing the compound B or a flowable agent containing the compound B was diluted with water containing RABIDEN 3S diluted 5000 times to prepare chemical solutions B containing the compound B at twice concentrations described in Table 3, respectively.
{Preparations Used in Test Examples and Containing the Compound B}
• Test numbers a and b: hexythiazox: Nissorun wettable powder (produced by Nippon Soda Co., Ltd.) • Test numbers c and d: abamectin: Agri-Mek (produced by Syngenta Japan K.K.) • Test numbers e and f: fenpyroximate: DANITRON flowable (produced by NIHON NOHYAKU CO., LTD.) • Test numbers g and h: acetamiprid: MOSPILAN water soluble powder (produced by Nippon Soda Co., Ltd.) • Test number i: propargite: Omite wettable powder (produced by NIHON NOHYAKU CO., LTD.)
A mixed solution obtained by mixing the chemical solution A and the chemical solution B in an equivalent amount was sprinkled on a petri dish containing kidney bean leaves on which Tetranychus urticae was inoculated at 2 mg per 1 cm^2 with a rotatory sprinkling tower (AB mixture application plot).
The chemical solution A and the chemical solution B were twice diluted with the water containing RABIDEN 3S diluted 5000 times to obtain a chemical solution A′ and a chemical solution B′, respectively.
The chemical solution A′ was sprinkled on another petri dish containing kidney bean leaves on which Tetranychus urticae was inoculated at 2 mg per 1 cm^2 with a rotatory sprinkling tower (A single application plot). The Chemical solution B′ was sprinkled on another petri dish containing kidney bean leaves on which Tetranychus urticae was inoculated at 2 mg per 1 cm^2 with a rotatory sprinkling tower (B single application plot).
Then, the petri dishes on which the chemical solutions were sprinkled were placed in a thermostatic chamber at a temperature of 25° C. and a humidity of 60%. All the imagoes were removed after 3 days elapsed from the sprinkling. Then, the petri dishes from which the imagoes were removed were placed in a thermostatic chamber at a temperature of 25° C. and a humidity of 60%. When 10 days elapsed from the sprinkling, the survival numbers of the next generation were investigated, and the effectivenesses were calculated. Effectiveness (%)=(Cn−Tn)/Cn×100 • Cn: Survival numbers of next generation in non-treatment plot after 10 days • Tn: Survival numbers of next generation in treatment plot after 10 days
To show the degree of a synergistic effect, the “effectiveness expectation” was calculated based on the Colby method. When the effectiveness is higher than the “effectiveness expectation”, it is determined that there is a synergistic effect. Expectation of effectiveness (%)(E)=X+Y−XY/100 • X: measurement of effectiveness in B single application plot (%) • Y: measurement of effectiveness in A single application plot (%)

CCN(Oc1cc(Br)cc(C(F)(F)F)c1)C(=O)NC(C)(C)C(=O)NCC(F)(F)F [Compound (II), 2-{3-[3-bromo-5-(trifluoromethyl)phenoxy]-3-ethylureido}-2-methyl-N-(2,2,2-trifluoroethyl)propanamide]
Effectiveness Found (Compound (II) 2.3 ppm, A single application plot, next generation 10 days after sprinkling): 52%
Effectiveness Found (Compound (II) 4.7 ppm, A single application plot, next generation 10 days after sprinkling): 74%

C/C(=N\C#N)N(C)Cc1ccc(Cl)nc1 [acetamiprid]
Effectiveness Found (acetamiprid 100 ppm, B single application plot, 10 days after sprinkling): 5%

CCCOc1cc(C(F)(F)F)ccc1O[C@H]1C[C@H]2CCC[C@@H](C1)N2Oc1ccc(C(F)(F)F)cn1 [acynonapyr]
Effectiveness Found (acynonapyr 0.4 ppm, B single application plot, 10 days after sprinkling): 58%

Cc1nn(C)c(Oc2ccccc2)c1C=NOCc1ccc(C(=O)OC(C)(C)C)cc1 [fenpyroximate]
Effectiveness Found (fenpyroximate 2.5 ppm, B single application plot, 10 days after sprinkling): 67%

C[C@@H]1[C@@H](c2ccc(Cl)cc2)SC(=O)N1C(=O)NC1CCCCC1 [hexythiazox]
Effectiveness Found (hexythiazox 1 ppm, B single application plot, 10 days after sprinkling): 58%

C#CCOS(=O)OC1CCCCC1Oc1ccc(C(C)(C)C)cc1 (centres unmarked) [propargite]
Effectiveness Found (propargite 5 ppm, B single application plot, 10 days after sprinkling): 24%

abamectin
Effectiveness Found (abamectin 0.07 ppm, B single application plot, 10 days after sprinkling): 42%

Reference: US12465049B2, “Pest control method, and pest control agent composition and pest control agent set” (Nippon Soda Co., Ltd., priority 2019, dated 2025)
